Reference: patent publication US8802661B2, “C-28 amides of modified C-3 betulinic acid derivatives as HIV maturation inhibitors” (priority 2010, dated 2014)
Where a name gives a salt, the structure may show the parent alone. Read-outs that look alike come from different tables or passages of the source.

System: recombinant NL4-3 virus (Renilla luciferase in nef, Gag P373S)
Assay: HIV Cell Culture Assay (luciferase reporter virus in MT-2 cells)
Type: cell-based
Experimental: MT-2 cells and 293T cells were obtained from the NIH AIDS Research and Reference Reagent Program. MT-2 cells were propagated in RPMI 1640 media supplemented with 10% heat inactivated fetal bovine serum, […]. The 293T cells were propagated in DMEM media supplemented with 10% heat inactivated fetal bovine serum (FBS), 100 units/ml penicillin G and 100 μg/ml streptomycin. The proviral DNA clone of NL4-3 was obtained from the NIH AIDS Research and Reference Reagent Program. A recombinant NL4-3 virus, in which a section of the nef gene from NL4-3 was replaced with the Renilla luciferase gene, was used as a reference virus. In addition, residue Gag P373 was converted to P373S. Briefly, the recombinant virus was prepared by transfection of the altered proviral clone of NL4-3. Transfections were performed in 293T cells using LipofectAMINE PLUS from Invitrogen (Carlsbad, Calif.), according to manufacturer's instruction. The virus was titered in MT-2 cells using luciferase enzyme activity as a marker. Luciferase was quantitated using the Dual Luciferase kit from Promega (Madison, Wis.), with modifications to the manufacturer's protocol. The diluted Passive Lysis solution was pre-mixed with the re-suspended Luciferase Assay Reagent and the re-suspended Stop & Glo Substrate (2:1:1 ratio). Fifty (50) μL of the mixture was added to each aspirated well on assay plates and luciferase activity was measured immediately on a Wallac TriLux (Perkin-Elmer). Antiviral activities of inhibitors toward the recombinant virus were quantified by measuring luciferase activity in cells infected for 4-5 days with NLRluc recombinants in the presence serial dilutions of the inhibitor. Table 1 is the key for the data in Table 2.

Compound	EC50 (NL43, read-out: EC50 Group) [nM]	EC50 (NL43) [nM]
C=C(C)[C@@H]1CC[C@]2(C(=O)NCCc3ccccn3)CC[C@]3(C)[C@H](CC[C@@H]4[C@@]5(C)CC=C(c6ccc(C(=O)O)cc6)C(C)(C)[C@@H]5CC[C@]43C)[C@@H]12 [Example 1, 4-((1R,3aS,5aR,5bR,7aR,11aS,11bR,13aR,13bR)-5a,5b,8,8,11a-pentamethyl-1-(prop-1-en-2-yl)-3a-(2-(pyridin-2-yl)ethylcarbamoyl)-2,3,3a,4,5,5a,5b,6,7,7a,8,11,11a,11b,12,13,13a,13b-octadecahydro-1H-cyclopenta[a]chrysen-9-yl)benzoic acid]	< 100	–
C=C(C)[C@@H]1CC[C@]2(C(=O)NCc3ccccn3)CC[C@]3(C)[C@H](CC[C@@H]4[C@@]5(C)CC=C(c6ccc(C(=O)O)cc6)C(C)(C)[C@@H]5CC[C@]43C)[C@@H]12 [Example 2, 4-((1R,3aS,5aR,5bR,7aR,11aS,11bR,13aR,13bR)-5a,5b,8,8,11a-pentamethyl-1-(prop-1-en-2-yl)-3a-(pyridin-2-ylmethylcarbamoyl)-2,3,3a,4,5,5a,5b,6,7,7a,8,11,11a,11b,12,13,13a,13b-octadecahydro-1H-cyclopenta[a]chrysen-9-yl)benzoic acid]	< 100	–
C=C(C)[C@@H]1CC[C@]2(C(=O)NCCc3cccnc3)CC[C@]3(C)[C@H](CC[C@@H]4[C@@]5(C)CC=C(c6ccc(C(=O)O)cc6)C(C)(C)[C@@H]5CC[C@]43C)[C@@H]12 [Example 3, 4-((1R,3aS,5aR,5bR,7aR,11aS,11bR,13aR,13bR)-5a,5b,8,8,11a-pentamethyl-1-(prop-1-en-2-yl)-3a-(2-(pyridin-3-yl)ethylcarbamoyl)-2,3,3a,4,5,5a,5b,6,7,7a,8,11,11a,11b,12,13,13a,13b-octadecahydro-1H-cyclopenta[a]chrysen-9-yl)benzoic acid]	< 100	–
C=C(C)[C@@H]1CC[C@]2(C(=O)NCCc3ccc(OC)cc3)CC[C@]3(C)[C@H](CC[C@@H]4[C@@]5(C)CC=C(c6ccc(C(=O)O)cc6)C(C)(C)[C@@H]5CC[C@]43C)[C@@H]12 [Example 4, 4-((1R,3aS,5aR,5bR,7aR,11aS,11bR,13aR,13bR)-3a-(4-methoxyphenethylcarbamoyl)-5a,5b,8,8,11a-pentamethyl-1-(prop-1-en-2-yl)-2,3,3a,4,5,5a,5b,6,7,7a,8,11,11a,11b,12,13,13a,13b-octadecahydro-1H-cyclopenta[a]chrysen-9-yl)benzoic acid]	< 100	–
C=C(C)[C@@H]1CC[C@]2(C(=O)NC3(c4ccccn4)CC3)CC[C@]3(C)[C@H](CC[C@@H]4[C@@]5(C)CC=C(c6ccc(C(=O)O)cc6)C(C)(C)[C@@H]5CC[C@]43C)[C@@H]12 [Example 5, 4-((1R,3aS,5aR,5bR,7aR,11aS,11bR,13aR,13bR)-5a,5b,8,8,11a-pentamethyl-1-(prop-1-en-2-yl)-3a-(1-(pyridin-2-yl)cyclopropylcarbamoyl)-2,3,3a,4,5,5a,5b,6,7,7a,8,11,11a,11b,12,13,13a,13b-octadecahydro-1H-cyclopenta[a]chrysen-9-yl)benzoic acid]	< 100	–
C=C(C)[C@@H]1CC[C@]2(C(=O)NS(=O)(=O)C3CC3)CC[C@]3(C)[C@H](CC[C@@H]4[C@@]5(C)CC=C(c6ccc(C(=O)O)cc6)C(C)(C)[C@@H]5CC[C@]43C)[C@@H]12 [Example 6, 4-((1R,3aS,5aR,5bR,7aR,11aS,11bR,13aR,13bR)-3a-(cyclopropylsulfonylcarbamoyl)-5a,5b,8,8,11a-pentamethyl-1-(prop-1-en-2-yl)-2,3,3a,4,5,5a,5b,6,7,7a,8,11,11a,11b,12,13,13a,13b-octadecahydro-1H-cyclopenta[a]chrysen-9-yl)benzoic acid]	< 100	–
C=C(C)[C@@H]1CC[C@]2(C(=O)NS(=O)(=O)N(C)C)CC[C@]3(C)[C@H](CC[C@@H]4[C@@]5(C)CC=C(c6ccc(C(=O)O)cc6)C(C)(C)[C@@H]5CC[C@]43C)[C@@H]12 [Example 7, 4-((1R,3aS,5aR,5bR,7aR,11aS,11bR,13aR,13bR)-3a-(N,N-dimethylsulfamoylcarbamoyl)-5a,5b,8,8,11a-pentamethyl-1-(prop-1-en-2-yl)-2,3,3a,4,5,5a,5b,6,7,7a,8,11,11a,11b,12,13,13a,13b-octadecahydro-1H-cyclopenta[a]chrysen-9-yl)benzoic acid]	< 100	–
C=C(C)[C@@H]1CC[C@]2(C(=O)NS(C)(=O)=O)CC[C@]3(C)[C@H](CC[C@@H]4[C@@]5(C)CC=C(c6ccc(C(=O)O)cc6)C(C)(C)[C@@H]5CC[C@]43C)[C@@H]12 [Example 8, 4-((1R,3aS,5aR,5bR,7aR,11aS,11bR,13aR,13bR)-5a,5b,8,8,11a-pentamethyl-3a-(methylsulfonylcarbamoyl)-1-(prop-1-en-2-yl)-2,3,3a,4,5,5a,5b,6,7,7a,8,11,11a,11b,12,13,13a,13b-octadecahydro-1H-cyclopenta[a]chrysen-9-yl)benzoic acid]	< 100	–
C=C(C)[C@@H]1CC[C@]2(C(=O)N3CCC[C@@H]3CO)CC[C@]3(C)[C@H](CC[C@@H]4[C@@]5(C)CC=C(c6ccc(C(=O)O)cc6)C(C)(C)[C@@H]5CC[C@]43C)[C@@H]12 [Example 9, 4-((1R,3aS,5aR,5bR,7aR,11aS,11bR,13aR,13bR)-3a-((R)-2-(hydroxymethyl)pyrrolidine-1-carbonyl)-5a,5b,8,8,11a-pentamethyl-1-(prop-1-en-2-yl)-2,3,3a,4,5,5a,5b,6,7,7a,8,11,11a,11b,12,13,13a,13b-octadecahydro-1H-cyclopenta[a]chrysen-9-yl)benzoic acid]	< 100	–
C=C(C)[C@@H]1CC[C@]2(C(=O)N3CCN(C)CC3)CC[C@]3(C)[C@H](CC[C@@H]4[C@@]5(C)CC=C(c6ccc(C(=O)O)cc6)C(C)(C)[C@@H]5CC[C@]43C)[C@@H]12 [Example 10, 4-((1R,3aS,5aR,5bR,7aR,11aS,11bR,13aR,13bR)-5a,5b,8,8,11a-pentamethyl-3a-(4-methylpiperazine-1-carbonyl)-1-(prop-1-en-2-yl)-2,3,3a,4,5,5a,5b,6,7,7a,8,11,11a,11b,12,13,13a,13b-octadecahydro-1H-cyclopenta[a]chrysen-9-yl)benzoic acid]	< 100	–
C=C(C)[C@@H]1CC[C@]2(C(=O)N3CCCC(C(=O)N(CC)CC)C3)CC[C@]3(C)[C@H](CC[C@@H]4[C@@]5(C)CC=C(c6ccc(C(=O)O)cc6)C(C)(C)[C@@H]5CC[C@]43C)[C@@H]12 (stereo partly drawn) [Example 11, 4-((1R,3aS,5aR,5bR,7aR,11aS,11bR,13aR,13bR)-3a-(3-(diethylcarbamoyl)piperidine-1-carbonyl)-5a,5b,8,8,11a-pentamethyl-1-(prop-1-en-2-yl)-2,3,3a,4,5,5a,5b,6,7,7a,8,11,11a,11b,12,13,13a,13b-octadecahydro-1H-cyclopenta[a]chrysen-9-yl)benzoic acid]	–	61
C=C(C)[C@@H]1CC[C@]2(C(=O)NCCN3CCOCC3)CC[C@]3(C)[C@H](CC[C@@H]4[C@@]5(C)CC=C(c6ccc(C(=O)O)cc6)C(C)(C)[C@@H]5CC[C@]43C)[C@@H]12 [Example 12, 4-((1R,3aS,5aR,5bR,7aR,11aS,11bR,13aR,13bR)-5a,5b,8,8,11a-pentamethyl-3a-(2-morpholinoethylcarbamoyl)-1-(prop-1-en-2-yl)-2,3,3a,4,5,5a,5b,6,7,7a,8,11,11a,11b,12,13,13a,13b-octadecahydro-1H-cyclopenta[a]chrysen-9-yl)benzoic acid]	< 100	–
C=C(C)[C@@H]1CC[C@]2(C(=O)N3CCN(CCO)CC3)CC[C@]3(C)[C@H](CC[C@@H]4[C@@]5(C)CC=C(c6ccc(C(=O)O)cc6)C(C)(C)[C@@H]5CC[C@]43C)[C@@H]12 [Example 13, 4-((1R,3aS,5aR,5bR,7aR,11aS,11bR,13aR,13bR)-3a-(4-(2-hydroxyethyl)piperazine-1-carbonyl)-5a,5b,8,8,11a-pentamethyl-1-(prop-1-en-2-yl)-2,3,3a,4,5,5a,5b,6,7,7a,8,11,11a,11b,12,13,13a,13b-octadecahydro-1H-cyclopenta[a]chrysen-9-yl)benzoic acid, TFA]	< 100	–
C=C(C)[C@@H]1CC[C@]2(C(=O)Nc3ccc(OC)cc3)CC[C@]3(C)[C@H](CC[C@@H]4[C@@]5(C)CC=C(c6ccc(C(=O)O)cc6)C(C)(C)[C@@H]5CC[C@]43C)[C@@H]12 [Example 14, 4-((1R,3aS,5aR,5bR,7aR,11aS,11bR,13aR,13bR)-3a-(4-methoxyphenylcarbamoyl)-5a,5b,8,8,11a-pentamethyl-1-(prop-1-en-2-yl)-2,3,3a,4,5,5a,5b,6,7,7a,8,11,11a,11b,12,13,13a,13b-octadecahydro-1H-cyclopenta[a]chrysen-9-yl)benzoic acid]	–	110
C=C(C)[C@@H]1CC[C@]2(C(=O)NCc3ccc(OC)cc3)CC[C@]3(C)[C@H](CC[C@@H]4[C@@]5(C)CC=C(c6ccc(C(=O)O)cc6)C(C)(C)[C@@H]5CC[C@]43C)[C@@H]12 [Example 15, 4-((1R,3aS,5aR,5bR,7aR,11aS,11bR,13aR,13bR)-3a-(4-methoxybenzylcarbamoyl)-5a,5b,8,8,11a-pentamethyl-1-(prop-1-en-2-yl)-2,3,3a,4,5,5a,5b,6,7,7a,8,11,11a,11b,12,13,13a,13b-octadecahydro-1H-cyclopenta[a]chrysen-9-yl)benzoic acid]	< 100	–
